Measured values from patent US9999222B2, “Herbicidal combination comprising azines” (BASF SE, priority 2014, dated 2018).
Read-outs that look alike come from different tables or passages of the source.

Assays:
Experiment in all cases: Greenhouse test, pre-emergence treatment
[1] = system: EPHHL; type: in vivo, Euphorbia heterophylla; details: Euphorbia heterophylla, pre-emergence, 480 h
Excerpt: (§1) The culture containers used were plastic flowerpots containing loamy sand with approximately 3.0% of humus as the substrate. The seeds of the test plants were sown separately for each species.
(§2) For the pre-emergence treatment, the active ingredients, which had been suspended or emulsified in water, were applied directly after sowing by means of finely distributing nozzles. The containers were irrigated gently to promote germination and growth and subsequently covered with transparent plastic hoods until the plants had rooted. This cover caused uniform germination of the test plants, unless this had been impaired by the active ingredients.
(§3) Depending on the species, the plants were kept at 10-25° C. or 20-35° C., respectively.
(§4) The test period extended over 2 to 4 weeks. During this time, the plants were tended, and their response to the individual treatments was evaluated.
(§5) Evaluation was carried out using a scale from 0 to 100. 100 means no emergence of the plants, or complete destruction of at least the aerial moieties, and 0 means no damage, or normal course of growth. A moderate herbicidal activity is given at values of at least 60, a good herbicidal activity is given at values of at least 70, and a very good herbicidal activity is given at values of at least 85.
(§6) The respective stated components a and b, and if appropriate, c were formulated as a 10% by weight strength emulsion concentrate and, with addition of the amount of solvent system, introduced into the spray liquor used for applying the active compound.
(§7) In the examples, the solvent used was water.
(§8) In the examples below, using the method of S. R. Colby (1967) “Calculating synergistic and antagonistic responses of herbicide combinations”, Weeds 15, p. 22ff., the value E, which is expected if the activity of the individual active compounds is only additive, was calculated. E=X+Y−(X·Y/100) where • X=percent activity using active compound a at an application rate A; • Y=percent activity using active compound b at an application rate B; • E=expected activity (in %) by a+b at application rates A+B.
(§9) If the value found experimentally is higher than the value E calculated according to Colby, a synergistic effect is present.

[2] = system: ANTAR; type: in vivo; details: Anthemis arvensis, 480 h, 20 DAT, read-out: observed % activity; for inhibition at 25 g/ha: 25 g ai/ha; for inhibition at 50 g/ha: 50 g ai/ha
Excerpt: as §1, §2, §3, §4, §5, §6, §7, §8, §9

[3] = system: COMBE; type: in vivo, Commelina benghalensis; details: Commelina benghalensis, pre-emergence, 480 h
Excerpt: as §1, §2, §3, §4, §5, §6, §7, §8, §9

[4] = system: ABUTH; type: in vivo, Abutilon theophrasti; details: Abutilon theophrasti, 480 h; for inhibition at 25 g/ha: 25 g ai/ha
Excerpt: as §1, §2, §3, §4, §5, §6, §7, §8, §9

[5] = system: CENCY; type: in vivo; details: 480 h, individual, read-out: observed % activity 20 DAT; for inhibition at 25 g/ha: use rate 25 g ai/ha; for inhibition at 50 g/ha: use rate 50 g ai/ha
[6] = system: GERPU; type: in vivo, Geranium pusillum; details: Geranium pusillum, pre-emergence, 480 h
Excerpt: as §1, §2, §3, §4, §5, §6, §7, §8, §9

[7] = system: POLCO; type: in vivo, Polygonum convolvulus; details: pre-emergence
Excerpt: as §1, §2, §3, §4, §5, §6, §7, §8, §9

[8] = system: IPOHE; type: in vivo, Ipomoea hederacea; details: Ipomoea hederacea, 480 h
Excerpt: as §1, §2, §3, §4, §5, §6, §7, §8, §9

[9] = system: KCHSC; type: in vivo, Kochia scoparia; details: Bassia scoparia, pre-emergence, 480 h
Excerpt: as §1, §2, §3, §4, §5, §6, §7, §8, §9

[10] = system: GALAP; type: in vivo, Galium aparine; details: Galium aparine, pre-emergence, 480 h
Excerpt: as §1, §2, §3, §4, §5, §6, §7, §8, §9

[11] = system: SIDRH; type: in vivo, Sida rhombifolia; details: for inhibition at 50 g/ha: 50 g ai/ha
Excerpt: as §1, §2, §3, §4, §5, §6, §7, §8, §9

[12] = 25 g ai/ha, 20 DAT, read-out: observed % activity
[13] = 50 g ai/ha, 20 DAT, read-out: observed % activity
[14] = EPHHL, individual, use rate 25 g ai/ha, read-out: observed % activity 20 DAT
[15] = EPHHL, individual, use rate 50 g ai/ha, read-out: observed % activity 20 DAT
[16] = COMBE, individual, use rate 50 g ai/ha, read-out: observed % activity 20 DAT
[17] = 20 DAT, read-out: observed % activity
[18] = GERPU, individual, use rate 25 g ai/ha, read-out: observed % activity 20 DAT
[19] = Fallopia convolvulus, 480 h, 25 g ai/ha, 20 DAT, read-out: observed % activity
[20] = Fallopia convolvulus, 480 h, 50 g ai/ha, 20 DAT, read-out: observed % activity
[21] = Fallopia convolvulus, 480 h, POLCO, individual, use rate 25 g ai/ha, read-out: observed % activity 20 DAT
[22] = Fallopia convolvulus, 480 h, POLCO, individual, use rate 50 g ai/ha, read-out: observed % activity 20 DAT
[23] = GALAP, individual, use rate 25 g ai/ha, read-out: observed % activity 20 DAT
[24] = GALAP, individual, use rate 50 g ai/ha, read-out: observed % activity 20 DAT
[25] = Sida rhombifolia, pre-emergence, 480 h, 25 g ai/ha, 20 DAT, read-out: observed % activity
[26] = Sida rhombifolia, pre-emergence, 480 h, 20 DAT, read-out: observed % activity
[27] = 6 g ai/ha, 20 DAT, read-out: observed % activity
[28] = 12 g ai/ha, 20 DAT, read-out: observed % activity

CS(=O)(=O)c1ccc(C(=O)C2C(=O)CCCC2=O)c([N+](=O)[O-])c1 [Mesotrione, mesotrione]
inhibition at 25 g/ha [1, 12]: 60%
inhibition at 50 g/ha [1, 13]: 70%
inhibition at 25 g/ha [1, 14]: 50%
inhibition at 50 g/ha [1, 15]: 60%
inhibition at 25 g/ha [2]: 85%
inhibition at 50 g/ha [2]: 95%
inhibition at 25 g/ha [3, 12]: 65%
inhibition at 50 g/ha [3, 13]: 98%
inhibition at 25 g/ha ([3]; COMBE, individual, use rate 25 g ai/ha, read-out: observed % activity 20 DAT): 0%
inhibition at 50 g/ha [3, 16]: 0%
inhibition at 25 g/ha [4, 17]: 95%
inhibition at 25 g/ha [5]: 60%
inhibition at 50 g/ha [5]: 40%
inhibition at 25 g/ha [6, 12]: 0%
inhibition at 50 g/ha [6, 13]: 0%
inhibition at 25 g/ha [6, 18]: 70%
inhibition at 25 g/ha [7, 19]: 20%
inhibition at 50 g/ha [7, 20]: 30%
inhibition at 25 g/ha [7, 21]: 0%
inhibition at 50 g/ha [7, 22]: 0%
inhibition at 50 g/ha [8, 13]: 30%
inhibition at 25 g/ha [9, 12]: 70%
inhibition at 50 g/ha [9, 13]: 90%
inhibition at 50 g/ha [10, 13]: 75%
inhibition at 25 g/ha [10, 23]: 65%
inhibition at 50 g/ha [10, 24]: 80%
observed % activity ([11]; 25 g ai/ha, 20 DAT): 55%
inhibition at 25 g/ha [11, 25]: 60%
inhibition at 50 g/ha [11, 26]: 85%

CS(=O)(=O)c1cc(C(F)(F)F)ccc1C(=O)c1cnoc1C1CC1 [isoxaflutole]
inhibition at 25 g/ha [1, 12]: 85%
inhibition at 50 g/ha [1, 13]: 85%
inhibition at 25 g/ha [1, 14]: 65%
inhibition at 50 g/ha [1, 15]: 70%
inhibition at 25 g/ha [2]: 95%
inhibition at 50 g/ha [2]: 98%
inhibition at 25 g/ha [3, 12]: 85%
inhibition at 50 g/ha [3, 13]: 80%
inhibition at 50 g/ha [3, 16]: 45%
inhibition at 25 g/ha [4, 17]: 98%
inhibition at 50 g/ha ([4]; ABUTH, individual, use rate 50 g ai/ha, read-out: observed % activity 20 DAT): 95%
inhibition at 25 g/ha [5]: 20%
inhibition at 50 g/ha [5]: 60%
inhibition at 25 g/ha [6, 12]: 0%
inhibition at 50 g/ha [6, 13]: 45%
inhibition at 25 g/ha [6, 18]: 70%
inhibition at 50 g/ha ([6]; GERPU, individual, use rate 50 g ai/ha, read-out: observed % activity 20 DAT): 50%
inhibition at 25 g/ha [7, 19]: 0%
inhibition at 50 g/ha [7, 20]: 30%
inhibition at 25 g/ha [7, 21]: 0%
inhibition at 50 g/ha [7, 22]: 0%
inhibition at 50 g/ha ([8]; IPOHE, individual, use rate 50 g ai/ha, read-out: observed % activity 20 DAT): 35%
inhibition at 25 g/ha [9, 12]: 98%
inhibition at 50 g/ha [9, 13]: 98%
inhibition at 25 g/ha ([9]; KCHSC, individual, use rate 25 g ai/ha, read-out: observed % activity 20 DAT): 98%
inhibition at 50 g/ha ([9]; KCHSC, individual, use rate 50 g ai/ha, read-out: observed % activity 20 DAT): 98%
inhibition at 25 g/ha [10, 12]: 40%
inhibition at 25 g/ha [10, 23]: 40%
inhibition at 50 g/ha [10, 24]: 70%
inhibition at 25 g/ha [11, 25]: 90%
inhibition at 50 g/ha [11, 26]: 98%

Cc1nn(-c2cc(NS(C)(=O)=O)c(Cl)cc2Cl)c(=O)n1C(F)F [Sulfentrazone, sulfentrazone]
inhibition at 6 g/ha ([2]; 6 g ai/ha): 30%
inhibition at 12 g/ha ([2]; 12 g ai/ha): 60%
inhibition at 6 g/ha [3, 27]: 20%
inhibition at 12 g/ha [3, 28]: 45%
inhibition at 10 g/ha ([3]; COMBE, individual, use rate 10 g ai/ha, read-out: observed % activity 20 DAT): 15%
inhibition at 6 g/ha [4, 27]: 20%
inhibition at 12 g/ha [4, 28]: 45%
inhibition at 10 g/ha ([4]; ABUTH, individual, use rate 10 g ai/ha, read-out: observed % activity 20 DAT): 25%
inhibition at 5 g/ha ([5]; use rate 5 g ai/ha): 20%
inhibition at 10 g/ha ([5]; use rate 10 g ai/ha): 30%
inhibition at 6 g/ha [6, 27]: 40%
inhibition at 12 g/ha [6, 28]: 45%
inhibition at 6 g/ha ([7]; Fallopia convolvulus, 480 h, 6 g ai/ha, 20 DAT, read-out: observed % activity): 0%
inhibition at 12 g/ha ([7]; Fallopia convolvulus, 480 h, 12 g ai/ha, 20 DAT, read-out: observed % activity): 0%
inhibition at 10 g/ha ([7]; Fallopia convolvulus, 480 h, POLCO, individual, use rate 10 g ai/ha, read-out: observed % activity 20 DAT): 25%
observed % activity 20 DAT ([7]; POLCO, individual, use rate 5 g ai/ha): 40%
inhibition at 12 g/ha [9, 28]: 98%
inhibition at 5 g/ha ([9]; KCHSC, individual, use rate 5 g ai/ha, read-out: observed % activity 20 DAT): 70%
inhibition at 10 g/ha ([9]; KCHSC, individual, use rate 10 g ai/ha, read-out: observed % activity 20 DAT): 65%
inhibition at 6 g/ha [10, 27]: 0%
inhibition at 5 g/ha ([10]; GALAP, individual, use rate 5 g ai/ha, read-out: observed % activity 20 DAT): 25%
inhibition at 10 g/ha ([10]; GALAP, individual, use rate 10 g ai/ha, read-out: observed % activity 20 DAT): 50%
inhibition at 6 g/ha ([11]; Sida rhombifolia, pre-emergence, 480 h, 6 g ai/ha, 20 DAT, read-out: observed % activity): 20%
inhibition at 10 g/ha ([11]; Sida rhombifolia, pre-emergence, 480 h, SIDRH, pre-emergence, individual, use rate 10 g ai/ha, read-out: observed % activity 20 DAT): 30%
